Measurements: US9796751B2, “Glycyrrhetinic acid derivative and use thereof” (INI CORPORATION, priority 2013, dated 2017)

Experiments:
[1] = LD50 test; conditions: in vivo; read-out: LD50 (lethal dose 50%)
Text: LD50 (lethal dose 50%) of the glycyrrhetinic acid derivative (the compound of the above formula (2)) of the disclosed embodiment and LD50 of carbenoxolone were compared.

[2] = physchem; format: physicochemical
[3] = Intracerebral migration after administration via various paths; format: in vivo, mice
Text: In this respect, the presently disclosed embodiment has a significant effect.

[4] = tested on: C57BL/6J mouse with chronic constriction injury (CCI) of sciatic nerve; test: Pain behavior test (mechanical allodynia), chronic constriction injury (CCI) of sciatic nerve, von Frey hair; format: in vivo; conditions: once a day from 7th to 14th day after CCI operation, Gabapentin 30 mg/kg i.p.
Method: Chronic pain was caused by performing a chronic constriction injury (CCI) operation of sciatic nerve on a hind leg of a C57BL/6J mouse (8 week old, n=4 in each group). Threshold values of mechanical strength which indicated avoidance behavior were recorded by pressing a von Frey hair against the foot pad of the mouse's hind leg (from the previous day of the CCI operation to the 14th day after the operation).
Regarding drugs, the below drugs were administered once a day from the 7th day to the 14th day after the operation, and the therapeutic effects were studied. In this example, “Compound No. 37” is a compound represented by the above formula (2).
Control: the same volume of physiological saline
Gabapentin: 30 mg/kg, intraperitoneal administration
Compound No. 37: 100 mg/kg, subcutaneous administration
Compound No. 37: 20 mg/kg, subcutaneous administration
Compound No. 37: 20 mg/kg, intraperitoneal administration

[5] = tested on: glutamate concentration in cerebrospinal fluid; test: Cerebrospinal fluid glutamate concentration determination (HPLC); format: in vivo, mouse; conditions: 14th day after CCI operation, compared with Gabapentin group
Method: On the 14th day after the CCI operation, cerebrospinal fluid were collected from the foramen magnum of the above-mentioned mice, and the glutamate concentration was measured quantitatively with HPLC.

[6] = tested on: human superoxide dismutase 1 (SOD1) G93A mutant transgenic mice; test: Survival extension effect in ALS acute-onset model mice (Kaplan-Meier); format: in vivo, mouse; conditions: 20 mg/kg intraperitoneal three times a week from 7-8 weeks of age; p<0.05
Method: The assessment of drug efficacy was conducted using, as an animal model of neurodegenerative diseases, the human superoxide dismutase 1 (SOD1) G93A mutant transgenic mice, which are widely used as an acute-onset model of amyotrophic lateral sclerosis (ALS).
Starting at 7-8 weeks of age, which is considered to be an early ALS onset period, the mice were intraperitoneally administered with 20 mg/kg body weight of the glycyrrhetinic acid derivative of the disclosed embodiment (Compound No. 37 group) or the same volume of physiological saline (saline group) three times a week.
The survival analysis was performed using the Kaplan-Meier method.

[7] = tested on: human amyloid β1-42 peptide (Aβ) intraventricularly injected mice; test: Fear conditioned learning test in Alzheimer's disease model mice; format: in vivo, mouse; conditions: 20 mg/kg intraperitoneal three times a week; Aβ 300 pmol/3 μl intraventricular; vs physiological saline group; p<0.05
Method: The assessment of drug efficacy of the glycyrrhetinic acid derivative of the disclosed embodiment (Compound No. 37 group) was conducted using, as an animal model of neurodegenerative diseases, the human amyloid β1-42 peptide (Aβ) intraventricularly injected mice (Doi et al., Am J Pathol. 175 (5): 2121-32, 2009), which are widely used as an Alzheimer's disease model.
The mice were intraventricularly injected with 300 pmol/3 μl of Aβ, and from the day of the injection, they were intraperitoneally administered with 20 mg/kg body weight of the glycyrrhetinic acid derivative (Compound No. 37 group) of the disclosed embodiment or the same volume of physiological saline (vehicle group) three times a week. For control group was used wild type mouse (G57BL/6J) of the same age. Behavioral analysis was performed using the following fear conditioned learning test.
Associative learning was assessed using a fear conditioned learning test (Mouri et al., FASEB J. 21, 2135-2148, 2007; Nagai et al., FASEB J. 17, 50-52, and 2003). The mice were placed in a transparent acrylic cage with a stainless steel grid installed therein and were subjected to a 20 second tone stimulus (80 dB) and to an electric stimulus (0.6 mA) in the last 5 seconds. A set of this combination stimulus was repeated 4 times with 15 second intervals, thereby causing fear conditioning. […]

SMILES: CC1(C)[C@@H](OC(=O)CCC(=O)O)CC[C@]2(C)[C@H]3C(=O)C=C4[C@@H]5C[C@@](C)(C(=O)O)CC[C@]5(C)CC[C@@]4(C)[C@]3(C)CC[C@@H]12 [carbenoxolone, reference compound]
- LD50 [1]: 100 mg/kg

SMILES: C[n+]1cccc(C(=O)N[C@H]2CC[C@]3(C)[C@H]4C(=O)C=C5[C@@H]6C[C@@](C)(C(=O)O)CC[C@]6(C)CC[C@@]5(C)[C@]4(C)CC[C@H]3C2(C)C)c1 [Compound No. 37]
- logD [2]: 2.94
- delivery into brain ([3]; injected hypodermically, model mice): is delivered into brain
- delivery into brain ([3]; intraarterial injection): delivered into brain
- reaching central nervous system and medicinal effect ([3]; intraperitoneal injection, model mice): reach a central nervous system and exert a medicinal effect
- delivery into brain ([3]; intravenous injection): delivered into brain
- pain threshold value compared to Gabapentin group ([4]; 20 mg/kg intraperitoneal): significant increases of pain threshold values
- pain threshold value compared to Gabapentin group ([4]; 100 mg/kg subcutaneous): significant increases of pain threshold values
- glutamate concentration in the cerebrospinal fluid ([5]; 20 mg/kg intraperitoneal): a decrease of the glutamate concentration in the cerebrospinal fluid, which was equal to or more than that shown in Gabapentin group
- glutamate concentration in the cerebrospinal fluid ([5]; 20 mg/kg subcutaneous): a decrease of the glutamate concentration in the cerebrospinal fluid, which was equal to or more than that shown in Gabapentin group
- glutamate concentration in the cerebrospinal fluid ([5]; 100 mg/kg subcutaneous): a decrease of the glutamate concentration in the cerebrospinal fluid, which was equal to or more than that shown in Gabapentin group
- LD50 [1]: > 5000 mg/kg
- extension of survival on average vs saline group [6]: about 17 days
- freezing behavior time in the contextual dependency test (memory disorder improvement) [7]: significantly moderated the observed reduction in freezing behavior time
